Reference: patent US20250213665A1, “METHODS FOR INHIBITING TRAINED IMMUNITY WITH NANOBIOLOGIC COMPOSITIONS” (Icahn School of Medicine at Mount Sinai, priority 2017, published 2025)

Experiment: Recovery and hydrolysis of the (pro-)drugs in nanobiologics
Type: physicochemical
Conditions: 4° C. in PBS
Description: From 10 mg/ml stock solutions in chloroform, 1-palmitoyl-2-oleoyl-sn-glycero-3-phosphocholine (POPC, 250 μL), 1-palmitoyl-2-hydroxy-sn-glycero-3-phosphocholine (PHPC, 65 μL), cholesterol (15 μL), tricaprylin (1000 μL) and (pro-)drug (65 μL), were combined in a 20 ml vial and dried under vacuum. The resulting film was redissolved in a acetonitrile:methanol mixture (95%: 5%, 3 mL total volume). Separately, a solution of ApoA-I protein in PBS (0.1 mg/ml) was prepared. Using a microfluidic set-up, both solutions were simultaneously injected into a herringbone mixer, with a flow rate of 0.75 ml/min for the lipid solution and a rate of 6 ml/min for the ApoA-I solution. The obtained solution was concentrated by centrifugal filtration using a […] Vivaspin tube at 4000 rpm to obtain a volume of 5 mL. […]
(Pro-)drug recovery and hydrolysis were determined using the following procedure: an aliquot (200 μL) of the particle solution was dried under vacuum, acetonitrile (600 μL) was added and the suspension was sonicated for 20 minutes. The suspension was centrifuged to precipitate any solids and the remaining solution was analyzed using HPLC; except for the malonate derivatives which were analyzed using SFC-MS, and Dimethylmalonate which was analyzed by GC-MS.

Structure (SMILES): CCCCCCCCCCCCCCCCCC(=O)O[C@@H]1CC[C@@H](C[C@@H](C)[C@@H]2CC(=O)[C@H](C)/C=C(\C)[C@@H](O)[C@@H](OC)C(=O)[C@H](C)C[C@H](C)/C=C/C=C/C=C(\C)[C@@H](OC)C[C@@H]3CC[C@@H](C)[C@@](O)(O3)C(=O)C(=O)N3CCCC[C@H]3C(=O)O2)C[C@H]1OC [Cis-Rapamycin]
- hydrolysis of the (pro-)drugs in the nanobiologics over time: hydrolysis was observed
